For 26 compounds, melting point and IC50 results are on record in patent US6855843B2, “Inhibitors of α4 mediated cell adhesion” (Tanabe Seiyaku Co., Ltd., priority 1998, dated 2005).

Series [1] has as its target T1, α4β7 (adhesion of RPMI cells to CS-1) (Homo sapiens, UniProt P13612+P26010).
T1 construct: endogenous in cells
T1 sequence (P13612 34-1032): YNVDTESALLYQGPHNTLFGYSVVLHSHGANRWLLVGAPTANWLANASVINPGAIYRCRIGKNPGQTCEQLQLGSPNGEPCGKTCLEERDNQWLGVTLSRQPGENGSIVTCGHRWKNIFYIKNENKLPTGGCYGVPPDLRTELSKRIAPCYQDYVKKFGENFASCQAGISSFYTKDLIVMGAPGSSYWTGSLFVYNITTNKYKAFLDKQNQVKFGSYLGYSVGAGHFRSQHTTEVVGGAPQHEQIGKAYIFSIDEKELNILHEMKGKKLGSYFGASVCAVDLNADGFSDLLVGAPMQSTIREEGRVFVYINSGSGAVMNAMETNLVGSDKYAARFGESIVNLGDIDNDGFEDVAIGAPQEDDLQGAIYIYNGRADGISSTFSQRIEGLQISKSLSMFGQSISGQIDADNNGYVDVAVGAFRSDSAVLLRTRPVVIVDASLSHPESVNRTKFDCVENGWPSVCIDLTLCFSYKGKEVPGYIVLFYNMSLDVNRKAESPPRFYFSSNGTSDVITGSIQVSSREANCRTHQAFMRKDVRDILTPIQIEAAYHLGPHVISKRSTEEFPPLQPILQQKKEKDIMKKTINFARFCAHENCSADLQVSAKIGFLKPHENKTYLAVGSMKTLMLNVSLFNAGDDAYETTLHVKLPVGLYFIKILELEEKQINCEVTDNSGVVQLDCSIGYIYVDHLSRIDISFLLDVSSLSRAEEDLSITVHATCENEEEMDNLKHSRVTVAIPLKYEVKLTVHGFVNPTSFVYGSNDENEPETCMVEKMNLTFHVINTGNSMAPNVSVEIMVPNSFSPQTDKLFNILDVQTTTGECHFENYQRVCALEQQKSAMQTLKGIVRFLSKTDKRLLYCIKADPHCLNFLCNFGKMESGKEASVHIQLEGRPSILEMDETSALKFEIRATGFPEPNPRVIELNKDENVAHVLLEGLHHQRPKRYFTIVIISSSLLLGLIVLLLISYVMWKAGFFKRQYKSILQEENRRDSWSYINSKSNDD
T1 sequence (P26010 20-798): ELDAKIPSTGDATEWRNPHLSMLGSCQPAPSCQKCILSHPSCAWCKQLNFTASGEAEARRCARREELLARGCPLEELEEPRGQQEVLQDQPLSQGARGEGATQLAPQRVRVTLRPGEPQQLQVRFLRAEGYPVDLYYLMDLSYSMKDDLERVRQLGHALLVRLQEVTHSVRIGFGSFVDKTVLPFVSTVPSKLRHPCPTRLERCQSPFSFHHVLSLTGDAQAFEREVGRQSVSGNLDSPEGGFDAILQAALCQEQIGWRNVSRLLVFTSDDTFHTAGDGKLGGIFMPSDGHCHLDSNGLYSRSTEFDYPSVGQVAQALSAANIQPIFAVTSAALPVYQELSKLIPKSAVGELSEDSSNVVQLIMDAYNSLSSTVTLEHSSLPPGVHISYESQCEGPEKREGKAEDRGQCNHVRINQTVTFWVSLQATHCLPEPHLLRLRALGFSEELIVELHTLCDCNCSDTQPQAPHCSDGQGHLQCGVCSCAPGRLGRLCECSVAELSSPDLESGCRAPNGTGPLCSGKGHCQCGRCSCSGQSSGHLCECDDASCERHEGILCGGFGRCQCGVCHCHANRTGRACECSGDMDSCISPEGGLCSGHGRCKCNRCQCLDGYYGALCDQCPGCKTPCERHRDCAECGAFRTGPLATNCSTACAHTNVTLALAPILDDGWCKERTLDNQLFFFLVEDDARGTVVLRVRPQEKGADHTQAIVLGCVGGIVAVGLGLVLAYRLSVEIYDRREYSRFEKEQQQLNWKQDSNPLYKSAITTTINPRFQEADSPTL
Put plainly: RPMI-CS-1 cell adhesion assay. The format is cell-based. As to conditions: adhesion of RPMI B-cell line (expresses α4β7) to CS-1 peptide coated microwells; read-out: RPMI-CS-1 IC50 value range.

Molecules are shown by their SMILES.

By melting point is commonly meant the temperature of the solid-liquid transition. A word on the IC50: it is the concentration at which inhibition is half-maximal. Consider `COc1cccc(OC)c1-c1ccc(C[C@H](NC(=O)c2c(Cl)cc(F)cc2Cl)C(=O)O)cc1` [Example 320, N-(2,6-Dichloro-4-fluorobenzoyl)-4-(2,6-dimethoxyphenyl)-L-phenylalanine], for which the melting point lay in the range of 206 to 207 °C. Besides, the IC50 in series [1] is < 0.3 µM.
Compound `COc1ccccc1-c1ccc(C[C@H](NC(=O)c2ccc(NC(=S)Nc3ccccc3)cc2Cl)C(=O)O)cc1` [Example 197] registered a melting point of 145 to 146 °C. Further, in series [1], the IC50 was 0.3 to 1 µM.
In turn, `CC(C)(C)OC(=O)n1cccc1-c1ccc(C[C@H](NC(=O)c2c(Cl)cccc2Cl)C(=O)O)cc1` [Example 329, N-(2,6-Dichlorobenzoyl)-4-(1-tert-butoxycarbonyl-2-pyrrolyl)-L-phenylalanine] gave a melting point of 98 to 99 °C. Moreover, the IC50 in series [1] is 1 to 5 µM.
Regarding `COc1cccc(OC)c1-c1ccc(C[C@H](NC(=O)c2c(Cl)cc(-c3ccccc3)cc2Cl)C(=O)O)cc1` [Example 301, N-(2,6-Dichloro-4-phenylbenzoyl)-4-(2,6-dimethoxyphenyl)-L-phenylalanine], the melting point amounted to 215 °C. Further, in series [1], the IC50 is < 0.3 µM.
Regarding `COc1cccc(OC)c1-c1ccc(CC[C@H](NC(=O)c2c(Cl)cccc2Cl)C(=O)O)cc1` [Example 295, N-(2,6-Dichlorobenzoyl)-4-(2,6-dimethoxyphenyl)-L-homophenylalanine], the melting point was 105 to 107 °C. Besides, in series [1], the IC50 was in the range of 1 to 5 µM.
In turn, `COc1ccc(C(N)=O)c(OC)c1-c1ccc(C[C@H](NC(=O)c2c(Cl)cc(NC(N)=O)cc2Cl)C(=O)O)cc1` [Example 205, N-(4-Ureido-2,6-dichlorobenzoyl)-4-(3-carbamoyl-2,6-dimethoxyphenyl)-L-phenylalanine] returned a melting point of 217 to 219 °C. The IC50 in series [1] is < 0.3 µM.
`COc1cccc(OC)c1-c1ccc(C[C@H](NC(=O)c2c(Cl)cc(-c3cccn3C)cc2Cl)C(=O)O)cc1` [Example 302, N-[2,6-Dichloro-4-(1-methyl-2-pyrrolyl)benzoyl]-4-(2,6-dimethoxyphenyl)-L-phenylalanine] showed a melting point of 199 °C. In addition, the IC50 in series [1] was < 0.3 µM.
`CN(C)CCOc1cccc(O)c1-c1ccc(C[C@H](NC(=O)c2c(Cl)cccc2Cl)C(=O)O)cc1` [Example 232] had a melting point of 168 to 169 °C. Further, the IC50 in series [1] was < 0.3 µM.
On to `COc1cccc(OC)c1-c1ccc(C[C@H](NC(=O)c2c(Cl)cccc2Cl)C(=O)O)cc1NS(C)(=O)=O` [Example 298], for which the melting point was in the range of 118 to 120 °C. In series [1], the IC50 is < 0.3 µM.
As to `COc1cc(NS(C)(=O)=O)cc(OC)c1-c1ccc(C[C@H](NC(=O)c2c(Cl)cccc2Cl)C(=O)O)cc1` [Example 163, N-(2,6-Dichlorobenzoyl)-4-[2,6-dimethoxy-4-[(methylsulfonyl)amino]phenyl]-L-phenylalanine], the melting point was 154 to 155 °C. In addition, in series [1], the IC50 is < 0.3 µM.
The compound `CNC(=O)Nc1ccc(OC)c(-c2ccc(C[C@H](NC(=O)c3c(Cl)cccc3Cl)C(=O)O)cc2)c1OC` [Example 324, N-(2,6-Dichlorobenzoyl)-4-[2,6-dimethoxy-3-(methylureido)phenyl]-L-phenylalanine] gave a melting point of 236 to 237 °C. Moreover, the IC50 in series [1] is < 0.3 µM.
In the case of `O=C(N[C@@H](Cc1ccc(-c2cccc3c2OCC3)cc1)C(=O)O)c1c(Cl)cccc1Cl` [Example 327], the melting point fell in the range of 215 to 216 °C. The IC50 in series [1] is < 0.3 µM.
In the case of `COc1ccc(F)c(OC)c1-c1ccc(C[C@H](NC(=O)c2c(Cl)cccc2Cl)C(=O)O)cc1` [Example 153A, N-(2,6-Dichlorobenzoyl)-4-(2,6-dimethoxy-3-fluorophenyl)-L-phenylalanine], the melting point fell in the range of 228 to 229 °C. Further, in series [1], the IC50 is < 0.3 µM.
The corresponding values for `COc1cc(C(=O)N(C)C)cc(OC)c1-c1ccc(C[C@H](NC(=O)c2c(Cl)cccc2Cl)C(=O)O)cc1` [Example 166] are 219 to 221 °C and < 0.3 µM.
The compound `COc1ccccc1-c1ccc(C[C@H](NC(=O)c2c(Cl)cccc2Cl)C(=O)O)cc1C(C)=O` [Example 71, 3-Acetyl-N-(2,6-dichlorobenzoyl)-4-(2-methoxyphenyl)-L-phenylalanine] had a melting point of 87 to 89 °C. Further, the IC50 in series [1] was < 0.3 µM.
In the case of `C=CCN(C(=O)OC(C)(C)C)c1cc(OC)c(-c2ccc(C[C@H](NC(=O)c3c(Cl)cccc3Cl)C(=O)O)cc2)c(OC)c1` [Example 155, N-(2,6-Dichlorobenzoyl)-4-[4-(N-allyl-N-tert-butoxycarbonylamino)-2,6-dimethoxyphenyl]-L-phenylalanine], the melting point was in the range of 138 to 139 °C. Also, in series [1], the IC50 is < 0.3 µM.
Taken in the same sequence, the figures for `COc1cccc(OCCF)c1-c1ccc(C[C@H](NC(=O)c2c(Cl)cccc2Cl)C(=O)O)cc1` [Example 228, N-(2,6-Dichlorobenzoyl)-4-[6-methoxy-2-(2-fluoroethoxy)phenyl]-L-phenylalanine] were 206 to 207 °C and < 0.3 µM.
The corresponding values for `COc1cccc(OC)c1-c1ccc(C[C@H](NC(=O)c2c(Cl)cc(NC(C)=O)cc2Cl)C(=O)O)cc1` [Example 199] are 227 to 229 °C and < 0.3 µM.
Compound `COc1ccc(NC(C)=O)c(OC)c1-c1ccc(C[C@H](NC(=O)c2c(Cl)cccc2Cl)C(=O)O)cc1` [Example 325, N-(2,6-Dichlorobenzoyl)-4-[2,6-dimethoxy-3-(acetylamino)phenyl]-L-phenylalanine] displayed a melting point of 244 to 245 °C. The IC50 in series [1] was < 0.3 µM.
The corresponding values for `COc1ccccc1-c1ccc(C[C@H](NC(=O)c2ccc(Br)cc2Cl)C(=O)O)cc1` [Example 212] are 62 to 63 °C and 1 to 5 µM.
`O=C(N[C@@H](Cc1ccc(-c2c(OCCO)cccc2OCCO)cc1)C(=O)O)c1c(Cl)cccc1Cl` [Example 229] returned a melting point of 124 to 125 °C. Besides, in series [1], the IC50 is < 0.3 µM.
Taken in the same sequence, the figures for `O=C(N[C@@H](Cc1ccc(-c2c(C(F)(F)F)cccc2C(F)(F)F)cc1)C(=O)O)c1c(Cl)cccc1Cl` [Example 146] were 259 to 260 °C and 0.3 to 1 µM.
Taken in the same sequence, the figures for `COc1cccc(OC)c1-c1ccc(C[C@H](NC(=O)c2c(Cl)cc(NC(=O)Nc3ccccc3C)cc2Cl)C(=O)O)cc1` [Example 202] were 182 to 184 °C and < 0.3 µM.
On to `COc1c(C)c(OC)c(-c2ccc(C[C@H](NC(=O)c3c(Cl)cccc3Cl)C(=O)O)cc2)c(OC)c1C` [Example 147], for which the melting point is 114 to 115 °C. In addition, the IC50 in series [1] was < 0.3 µM.
Consider `COc1cccc(OC)c1-c1ccc(C[C@H](NC(=O)c2c(Cl)cc(NS(=O)(=O)c3cccs3)cc2Cl)C(=O)O)cc1` [Example 193, N-[2,6-Dichloro-4-[(2-thienylsulfonyl)amino]benzoyl]-4-(2,6-dimethoxyphenyl)-L-phenylalanine], for which the melting point was 141 to 142 °C. The IC50 in series [1] is < 0.3 µM.
`O=C(N[C@@H](Cc1ccc(-c2c(OCC(F)(F)F)cccc2OCC(F)(F)F)cc1)C(=O)O)c1c(Cl)cccc1Cl` [Example 230]: the melting point fell in the range of 93 to 94 °C. Moreover, the IC50 in series [1] lay within 0.3 to 1 µM.
